Assay results as given in PubChem BioAssay (NCI).
Where “and” joins values, the source holds several entries; their conditions need not be identical. Identical values can stand only once.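 Method: 48-hour compound exposure of cells in 96-well plates, five concentrations, linear interpolation of endpoints. GI50 = concentration required for 50% inhibition of growth. Definition used: TGI = concentration required for complete inhibition of growth.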

Experiments:
Test in all cases: NCI tumour cell line growth inhibition, 48 h
[1] = tested on: IGROV1 ovarian
[2] = tested on: NCI-H522 lung
[3] = tested on: HOP-92 NSCLC
[4] = tested on: SF-295 CNS
[5] = tested on: CCRF-CEM leukemia
[6] = tested on: HT29 colon
[7] = tested on: A498 renal
[8] = tested on: RXF 393 renal
[9] = tested on: MCF7 breast
[10] = tested on: MDA-N

Structure (SMILES)	TGI [1] [µM]	TGI [2] [µM]	TGI [3] [µM]	TGI [4] [µM]	TGI [5]	TGI [6]	TGI [7] [µM]	TGI [8] [µM]	TGI [9] [µM]	TGI [10] [µM]	GI50 [1]	GI50 [2]	GI50 [9] [µM]	GI50 [3] [nM]	GI50 [4]	GI50 [5] [µM]	GI50 [6] [µM]	GI50 [7] [nM]	GI50 [8] [µM]	GI50 [10]
COc1cccc(-c2nccc3c(OCc4ccccc4)c(OC)c(OC)cc23)c1	> 100	> 100	> 100	> 100	> 100 µM	> 100 µM	> 100	> 100												
CCOC(=O)C(C)(C)Oc1ccc2c(-c3ccc(Cl)cc3)c(-c3ccc(Cl)cc3)c(=O)oc2c1	> 100			> 100	> 100 µM	> 100 µM	> 100	> 100												
O=C1/C(=C/c2ccccc2)NC(=S)N1CN1CCCCC1	> 100		> 100	> 100	> 100 µM	> 100 µM	> 100		> 100	> 100										
Cc1c2ccccc2c(C)n2c1nc1ccccc12	43.8		45.2	25.3	60.5 µM	69 µM	25.5	21.5	13.3	25										
COc1cccc(C2SC(C)C(=O)N2CCc2cccs2)c1 (stereo not drawn)	15.7	5.15	4.37	11.2	22.3 µM	12 µM	10.5	16.4	12.7		2.01 µM	1.71 µM	3.02	1160	2680 nM	3.01	3.24	1250	4.26	
COC([C@@H](OC(=O)c1ccccc1)[C@H](OC(=O)c1ccccc1)C(O)COC(=O)c1ccccc1)n1cc(C)c(=O)[nH]c1=O (stereo partly drawn)	> 100	> 100		78.7		41.4 µM		43.1	52.3	> 100										
COc1ccc2[nH]c(C(=O)N3CC(CCl)c4c3cc(N)c3ccccc43)cc2c1 (stereo not drawn)	18.2			< 0.0172	0.0681 µM	1.1 µM	0.0399		0.0353	< 0.01										
CCOC(=O)C(=O)CC(=O)C1=C(c2ccccc2OC)CC(c2cccs2)=CC1=O	> 100	> 100	> 100	> 100	> 100 µM	> 100 µM	> 100	> 100		> 100										
CC(=O)OC(C)c1cc2c(s1)C(=O)c1c(C(C)OC(C)=O)csc1C2=O (stereo not drawn)	3.28		5.55	2.59	4.44 µM	4.35 µM	3.64	4.39	3.09	0.382										0.214 µM
CNC(=S)NNc1ncnc2c1ncn2-c1ccc(C)cc1	> 100	> 100	> 100	> 100	> 100 µM	> 100 µM	> 100	> 100		> 100										
N#CC[N+]1(Cc2ccccn2)CCCC1	> 100	> 100	> 100	> 100		> 100 µM	> 100	> 100	> 100	> 100										
c1csc(-c2ccsc2-c2ccsc2)c1	> 100		> 100	> 100	> 100 µM	> 100 µM	> 100	76.3	> 100	> 100										
CCCCn1c2ccccc2c2ccc3c(c21)C(=O)C=CC3=O	> 100	> 100	> 100	> 100		3.46 µM	> 100													
CCCCCN(CCCCC)CC(C)(C)C(O)c1ccc(OC)c2ccccc12 (stereo not drawn)	14.3	20.3	12.7	29.7	> 100 µM	16.5 µM	28.1	24.1	22.5											
CC(=O)OCCCCn1cc(Cn2ccc(=O)n(Cc3cn(CCCCOC(C)=O)nn3)c2=O)nn1	> 100		> 100	> 100	> 100 µM		> 100	> 100	> 100	> 100										
O=C(CSc1nnc(-c2ccc(N=Cc3ccc(Cl)cc3)cc2)o1)Nc1ccc([N+](=O)[O-])cc1		38.3		79.4	47.6 µM	35.9 µM		34.6												
COC12CCC(C(C(=O)c3ccccc3)=C1C(=O)c1ccccc1)C(O)C2 (stereo not drawn)	> 100	> 100	> 100	> 100	> 100 µM	> 100 µM	> 100													
COc1ccc(N=C2C(=Nc3ccc(OC)cc3)N(c3ccc(N(C)C)cc3)C(=S)N2c2ccc(OC)cc2)cc1	> 100	> 100	> 100		> 100 µM	> 100 µM	> 100		> 100	> 100										
CC(=O)NC1(C(=O)N[C@@H](Cc2ccccc2)C(=O)NC2CCCCC2)Cc2ccc3ccccc3c2-c2c(ccc3ccccc23)C1	> 100	> 100	> 100	> 100	> 100 µM and 40.3 µM	> 100 µM and 57.5 µM	> 100		> 100	> 100	16.2 µM and 39.8 µM	4.56 µM and 10.4 µM			2550 nM and 662 nM					5.39 µM and 15.2 µM
Cc1cc(O)cc(O)c1C(=O)O[C@]1(C)C(=O)C=C2C=C(/C=C/C(=O)O)OC=C2C1=O	> 100		> 100	> 100	88.3 µM	> 100 µM	> 100	> 100	> 100	> 100										
CCCCCCCCCCCCCCCCCC(=O)Nc1ccn(C2CCC(COP(=O)(O)O)O2)c(=O)n1 (stereo not drawn)	> 100	> 100	> 100	> 100	> 100 µM	> 100 µM	> 100	> 100	> 100											
Cc1c(-c2nnc(-c3ccccc3)o2)c(=O)n(-c2ccccc2)n1C	> 100	> 100	> 100	> 100	> 100 µM	> 100 µM	> 100	> 100												
O=C1C2=C(SCCS2)C(=O)c2c(Sc3ccc(Cl)cc3)c(Sc3ccc(Cl)cc3)c(Sc3ccc(Cl)cc3)c(Sc3ccc(Cl)cc3)c21	> 100			> 100	23.8 µM		73.7	99.4	> 100	> 100										
